Measurements: patent US11351178B2, “Selective HDAC6 inhibitors” (ITALFARMACO S.P.A., priority 2017, dated 2022)
Read-outs that look alike come from different tables or passages of the source.

Key:
Stability in rat plasma = format: in vitro ADME; settings: after 4 hours, 37° C.
Procedure, shortened: (§1)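 Compounds incubated at 37° C in rat or human plasma at 50 μM (UV/HPLC) or 1 or 2 μM (LC-MS/MS) for 0–4 h. Reaction stopped with acidified acetonitrile on ice; percent remaining versus initial amount and plasma half-life calculated.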

[1] = Stability to Phase I metabolism in human S9 liver fraction; format: in vitro ADME
Procedure, shortened: (§2)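 Compounds were incubated with rat or human liver S9 fraction at 37 °C for up to 90 min. Reactions were quenched on ice with acidified acetonitrile and analysed by HPLC-UV or LC-MS/MS. Percent remaining versus time zero and intrinsic clearance were calculated.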

[2] = Stability to Phase I metabolism in rat S9 liver fraction; format: in vitro ADME; settings: after 90 min, 37° C.
Procedure, shortened: as §2

[3] = Stability in human plasma; format: in vitro ADME; settings: after 4 hours, 37° C.
Procedure, shortened: as §1

recombinant human HDAC6 = molecular target: T1, recombinant human HDAC6 (Homo sapiens, UniProt Q9UBN7); assay: Enzymatic screening on recombinant human HDAC6; format: biochemical; settings: read-out: HDAC6 IC50
T1 sequence (Q9UBN7 1-1215): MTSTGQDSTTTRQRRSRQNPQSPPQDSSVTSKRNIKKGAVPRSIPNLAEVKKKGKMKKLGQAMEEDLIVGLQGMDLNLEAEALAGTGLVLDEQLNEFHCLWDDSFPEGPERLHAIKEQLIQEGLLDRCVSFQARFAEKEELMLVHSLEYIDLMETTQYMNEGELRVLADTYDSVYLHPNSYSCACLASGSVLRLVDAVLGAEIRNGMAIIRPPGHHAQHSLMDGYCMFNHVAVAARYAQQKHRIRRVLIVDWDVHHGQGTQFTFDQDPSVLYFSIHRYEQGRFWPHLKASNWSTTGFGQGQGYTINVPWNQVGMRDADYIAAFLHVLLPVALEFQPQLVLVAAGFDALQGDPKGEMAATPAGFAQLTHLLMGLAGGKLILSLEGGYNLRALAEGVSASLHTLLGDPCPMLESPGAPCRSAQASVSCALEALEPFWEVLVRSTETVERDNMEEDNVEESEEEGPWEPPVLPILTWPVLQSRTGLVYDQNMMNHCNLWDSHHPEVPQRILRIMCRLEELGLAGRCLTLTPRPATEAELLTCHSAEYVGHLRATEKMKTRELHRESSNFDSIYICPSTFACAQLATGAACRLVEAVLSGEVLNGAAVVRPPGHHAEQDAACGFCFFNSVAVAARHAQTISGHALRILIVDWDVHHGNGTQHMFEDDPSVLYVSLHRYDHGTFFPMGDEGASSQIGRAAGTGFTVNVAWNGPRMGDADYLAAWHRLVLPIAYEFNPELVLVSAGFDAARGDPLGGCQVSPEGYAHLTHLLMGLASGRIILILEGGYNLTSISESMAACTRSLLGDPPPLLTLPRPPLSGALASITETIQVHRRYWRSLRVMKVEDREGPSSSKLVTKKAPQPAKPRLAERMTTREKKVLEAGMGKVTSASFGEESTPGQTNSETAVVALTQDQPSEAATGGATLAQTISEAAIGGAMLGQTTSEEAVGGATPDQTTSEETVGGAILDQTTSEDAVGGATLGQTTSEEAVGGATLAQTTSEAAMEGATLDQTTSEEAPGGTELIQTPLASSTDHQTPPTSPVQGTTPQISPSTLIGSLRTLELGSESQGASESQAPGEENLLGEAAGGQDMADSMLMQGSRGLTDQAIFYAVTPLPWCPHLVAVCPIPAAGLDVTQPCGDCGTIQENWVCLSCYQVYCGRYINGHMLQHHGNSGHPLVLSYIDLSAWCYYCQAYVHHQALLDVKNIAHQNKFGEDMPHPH
Procedure, shortened: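 Deacetylase activity of recombinant human isoforms is measured with FLUOR DE LYS, FLUOR DE LYS-Green or trifluoroacetyl-L-lysine substrates, supplied at 2× in 25 mM Tris-HCl, pH 8, 130 mM NaCl, 0.05% Tween-20, 10% glycerol. Both the enzyme-compound preincubation, of isoform-specific length, and the substrate reaction run at 30 °C.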

HDAC4 = molecular target: T2, HDAC4 (Homo sapiens, UniProt P56524); assay: Enzymatic test HDAC4; format: biochemical; settings: Table 3
T2 construct: purchased BPS 50004
Method: After a period of incubation at 30° C. (incubation times vary for different isoforms and are shown in table 1) 25 μL of solution containing the substrate were added. As substrate, FLUOR DE LYS® deacetylase substrate (Enzo Life Sciences, cat #BML-K1104, FdL), FLUOR DE LYS®-Green substrate (Enzo Life Sciences, cat #BML-K1572 FdL_G) and trifluoroacetyl-L-lysine (Tfal)-2× concentrated solution in 25 mM Tris-HCl, pH 8, 130 mM NaCl 0.05% Tween-20 10% glycerol) were used. Following a reaction period at 30° C.

[4] = human liver S9 fraction, after 90 min, 37° C.

T2 sequence (P56524 627-1084 limits assumed): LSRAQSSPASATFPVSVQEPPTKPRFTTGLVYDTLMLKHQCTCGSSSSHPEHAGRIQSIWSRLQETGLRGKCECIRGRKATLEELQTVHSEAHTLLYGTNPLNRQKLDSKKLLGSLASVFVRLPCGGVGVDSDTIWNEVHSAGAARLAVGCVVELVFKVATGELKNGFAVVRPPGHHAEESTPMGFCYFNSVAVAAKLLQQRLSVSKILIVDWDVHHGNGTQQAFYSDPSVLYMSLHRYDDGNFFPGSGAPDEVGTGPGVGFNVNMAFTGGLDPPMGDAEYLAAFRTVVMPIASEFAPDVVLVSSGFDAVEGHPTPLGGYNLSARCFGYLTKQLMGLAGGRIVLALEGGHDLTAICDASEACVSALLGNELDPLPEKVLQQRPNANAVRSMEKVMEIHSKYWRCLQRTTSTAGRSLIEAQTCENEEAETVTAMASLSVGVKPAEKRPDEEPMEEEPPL

Compound | residual percentage in rat plasma (Stability in rat plasma) | residual percentage in rat S9 fraction [2] | IC50 (recombinant human HDAC6; Table 2) | IC50 (recombinant human HDAC6; Table 3) | IC50 (HDAC4) | residual percentage in human S9 fraction ([1]; human, 90 min, pH 7.4) | residual percentage in human S9 fraction [1, 4] | residual percentage in human plasma [3]
O=C(NO)c1ccc(Cn2nnnc2-c2cccs2)cc1 [comp. 8, N-hydroxy-4-((5-(thiophen-2-yl)-1H-tetrazol-1-yl)methyl)benzamide] | 62% | 82% |  |  |  |  | 100% | 91%
O=C(NO)c1ccc(Cn2nnc(-c3ccc(C(F)(F)F)cc3)n2)cc1 [comp. 23, 4-[[5-[4-(trifluoromethyl)phenyl]tetrazol-2-yl]methyl]benzenecarbohydroxamic acid] | 77% | 8% | 11 nM | 11 nM | 4240 nM |  |  | 
Nn1c(Sc2ccc(C(=O)NO)cc2)nnc1-c1ccc(OC(F)F)cc1 [comp. 28, 4-[[4-amino-5-[4-(difluoromethoxy)phenyl]-1,2,4-triazol-3-yl]sulfanyl]benzenecarbohydroxamic acid] | 90% | 68% | 10 nM | 10 nM | 1330 nM |  |  | 
O=C(NO)c1ccc(Cn2nnc(-c3ccccc3F)n2)cc1 [comp. 33, 4-[[5-(2-fluorophenyl)tetrazol-2-yl]methyl]benzenecarbohydroxamic acid] | 52% | 2% | 3 nM | 3 nM | 1910 nM |  |  | 
O=C(NO)c1ccc(Cn2nnc(-c3cccs3)n2)cc1 [comp. 50, 4-[[5-(2-thienyl)tetrazol-2-yl]methyl]benzenecarbohydroxamic acid] |  |  | 2 nM | 2 nM | 1950 nM |  |  | 
O=C(NO)c1ccc(Cc2nnc(-c3ccc(F)cc3F)o2)cc1 [comp. 58, 4-((5-(2,4-difluorophenyl)-1,3,4-oxadiazol-2-yl)methyl)-N-hydroxybenzamide] | 106% | 15% | 6 nM | 6 nM | 3930 nM |  |  | 
Cn1c(Sc2c(F)cc(C(=O)NO)cc2F)nnc1-c1cccc(CN2CCCCCC2)c1 [comp. 167, 4-[[5-[3-(azepan-1-ylmethyl)phenyl]-4-methyl-1,2,4-triazol-3-yl]sulfanyl]-3,5-difluoro-benzenecarbohydroxamic acid] | 85% | 55% | 6 nM |  |  |  | 78% | 91%
Nc1ccc(-c2nnn(Cc3c(F)cc(C(=O)NO)cc3F)n2)cc1 [comp. 171, 4-[[5-(4-aminophenyl)tetrazol-2-yl]methyl]-3,5-difluoro-benzenecarbohydroxamic acid] | 77% | 48% | 4 nM |  |  |  | 74% | 88%
Cn1c(Sc2c(F)cc(C(=O)NO)cc2F)nnc1-c1cccnn1 [comp. 179, 3,5-difluoro-4-[(4-methyl-5-pyridazin-3-yl-1,2,4-triazol-3-yl)sulfanyl]benzenecarbohydroxamic acid] | 98% | 58% | 11 nM |  |  |  | 79% | 100%
Cn1c(Sc2c(F)cc(C(=O)NO)cc2F)nnc1-c1ncccc1F [comp. 180, 3,5-difluoro-4-[[5-(3-fluoro-2-pyridyl)-4-methyl-1,2,4-triazol-3-yl]sulfanyl]benzenecarbohydroxamic acid] | 100% | 70% | 6 nM |  |  |  | 80% | 97%
O=C(NO)c1cc(F)c(Cc2nnc(-c3ccncc3)s2)c(F)c1 [compound 195, 3,5-difluoro-4-[[5-(4-pyridyl)-1,3,4-thiadiazol-2-yl]methyl]benzenecarbohydroxamic acid] | 84% | 32% | 4 nM |  |  |  | 68% | 93%

Second part, led by results:

residual percentage in rat plasma (Stability in rat plasma) | residual percentage in rat S9 fraction [2] | IC50 (recombinant human HDAC6; Table 2) | IC50 (recombinant human HDAC6; Table 3) | IC50 (HDAC4) | residual percentage in human S9 fraction ([1]; human, 90 min, pH 7.4) | Compound | residual percentage in human S9 fraction [1, 4] | residual percentage in human plasma [3]
53% | 8% | 7 nM | 7 nM | 2490 nM |  | CN(C)S(=O)(=O)c1cccc(-c2nnn(Cc3ccc(C(=O)NO)cc3)n2)c1 [comp. 59, 4-[[5-[3-(dimethylsulfamoyl)phenyl]tetrazol-2-yl]methyl]benzenecarbohydroxamic acid] |  | 
71% | 49% | 9 nM | 9 nM | 1590 nM |  | CCN(CC)S(=O)(=O)c1cccc(-c2nnc(Sc3ccc(C(=O)NO)cc3)n2N)c1 [comp. 61, 4-[[4-amino-5-[3-(diethylsulfamoyl)phenyl]-1,2,4-triazol-3-yl]sulfanyl]benzenecarbohydroxamic acid] |  | 
88% | 8% | 6 nM | 6 nM | 831 nM |  | O=C(NO)c1cc(F)c(Cn2nnc(-c3cccs3)n2)c(F)c1 [comp. 65, 3,5-difluoro-4-[[5-(2-thienyl)tetrazol-2-yl]methyl]benzenecarbohydroxamic acid] |  | 
66% | 54% | 6 nM | 6 nM | 481 nM |  | CCN(CC)S(=O)(=O)c1cccc(-c2nnc(Sc3ccc(C(=O)NO)cc3)n2C)c1 [comp. 66, 4-[[5-[3-(diethylsulfamoyl)phenyl]-4-methyl-1,2,4-triazol-3-yl]sulfanyl]benzenecarbohydroxamic acid] |  | 
 | 40% | 17 nM | 17 nM | 2650 nM |  | CN(C)c1cccc(-c2nnc(Sc3ccc(C(=O)NO)cc3)n2C)c1 [comp. 77, 4-[[5-[3-(dimethylamino)phenyl]-4-methyl-1,2,4-triazol-3-yl]sulfanyl]benzenecarbohydroxamic acid] |  | 
78% | 90% | 17 nM |  |  | 83% | O=C(NO)c1cc(F)c(Cn2nnnc2-c2ncccn2)c(F)c1 [comp. 125, 3,5-difluoro-4-[(5-pyrimidin-2-yltetrazol-1-yl)methyl]benzenecarbohydroxamic acid] |  | 77%
 |  | 7 nM |  |  |  | Cn1c(Sc2c(F)cc(C(=O)NO)cc2F)nnc1-c1ccc(CN2CCCCCC2)cc1 [comp. 168, 4-[[5-[4-(azepan-1-ylmethyl)phenyl]-4-methyl-1,2,4-triazol-3-yl]sulfanyl]-3,5-difluoro-benzenecarbohydroxamic acid] |  | 
